# From patent US9546172B2, “Pyrazolo[3,4-d]pyrimidine and pyrazolo[2,3-d]pyrimidine compounds as kinase inhibitors” (Pharmacyclics LLC, priority 2011, dated 2017)
# Target: Lck (Homo sapiens, UniProt P06239)
# Test: Lck kinase inhibition
# Type: biochemical
# Conditions: not given
# Description: (§1) Btk kinase activity was determined using a time-resolved fluorescence resonance energy transfer (TR-FRET) methodology. Measurements were performed in a reaction volume of 50 μL using 96-well assay plates. […] The reaction was quenched by the addition of 1.2 equivalents of EDTA (relative to divalent cation) in 25 μL of 1× Lance buffer (Perkin-Elmer). Streptavidin-APC (Perkin-Elmer) and Eu-labeled p-Tyr100 antibody (Perkin-Elmer) in 1× Lance buffer were added in a 25 μL volume to give final concentrations of 100 nM and 2.5 nM, respectively, and the mixture was allowed to incubate for one hour. The TR-FRET signal was measured on a multimode plate reader with an excitation wavelength (λEx) of 330 nm and detection wavelengths (λEm) of 615 and 665 nm. Activity was determined by the ratio of the fluorescence at 665 nm to that at 615 nm. For each compound, enzyme activity was measured at various concentrations of compound. Negative control reactions were performed in the absence of inhibitor in replicates of six, and two no-enzyme controls were used to determine baseline fluorescence levels Inhibition constants, Ki(app), were obtained using the program BatchKi (Kuzmic et al. (2000), Anal. Biochem. 286:45-50). IC50s were obtained according to the equation: IC50={Ki(app)/(1+[ATP]/Km^ATP)}+[E]total/2; For all kinases, [ATP]=Km^ATP, [Btk]total=0.5 nM and [Lck]total=6 nM.
# Lck, sequence (P06239 whole entry): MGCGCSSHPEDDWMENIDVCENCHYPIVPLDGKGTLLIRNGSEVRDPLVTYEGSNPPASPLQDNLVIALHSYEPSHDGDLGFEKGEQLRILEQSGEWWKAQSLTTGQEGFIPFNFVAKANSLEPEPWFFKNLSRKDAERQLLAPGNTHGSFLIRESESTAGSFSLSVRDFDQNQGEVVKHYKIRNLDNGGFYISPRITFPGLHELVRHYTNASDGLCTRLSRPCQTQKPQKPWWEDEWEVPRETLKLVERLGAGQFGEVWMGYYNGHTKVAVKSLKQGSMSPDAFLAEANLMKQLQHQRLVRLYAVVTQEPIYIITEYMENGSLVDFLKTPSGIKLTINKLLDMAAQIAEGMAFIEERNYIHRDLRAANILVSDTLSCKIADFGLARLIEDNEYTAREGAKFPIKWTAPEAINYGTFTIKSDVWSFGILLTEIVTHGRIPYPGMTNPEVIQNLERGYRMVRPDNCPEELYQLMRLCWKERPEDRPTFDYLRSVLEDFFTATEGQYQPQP
row,IC50,SMILES
1,100 to 1000 nM,"C=CC(=O)Nc1ccc(-n2nc(-c3ccc(Cl)c(Cl)c3)c3c(N)ncnc32)cc1 [Example 20, N-(4-(4-amino-3-(3,4-dichlorophenyl)-1H-pyrazolo[3,4-d]pyrimidin-1-yl)phenyl)acrylamide]"

# Target: T1, Btk (Homo sapiens, UniProt Q06187)
# T1 construct: purified from insect cells as a full-length construct containing a N-terminal 6×-His tag; 6xHis (N); host or cells: insect cells (baculovirus Sf21 in Method B)
# Test: Btk in vitro inhibitory activity (one of Methods A, B, C)
# Type: biochemical
# Conditions: determined in one of three in vitro assays (Examples 125-127)
# Description: The Btk IC50s of compounds disclosed herein was determined in one of the three in vitro assays described in Examples 125-127.
# as §1
# Kinase activity is measured in vitro using electrophoretic mobility shift assay. The kinase reactions are assembled in a total volume of 25 μL in 384 well plates. […] The reaction is incubated for one hour and is quenched by the addition of 45 μL of termination buffer (100 mM HEPES, pH7.5, 0.01% Triton X-100, 30 mM EDTA). The terminated reactions are analyzed using 12 channel LabChip® 3000 microfluidic detection instrument (Caliper Life Sciences). The enzymatic phosphorylation of the peptide results in a change in net charge, enabling electrophoretic separation of product from substrate peptide. As substrate and product peptides are separated, two peaks of fluorescence are observed. Change in the relative fluorescence intensity of the substrate and product peaks is the parameter measured, reflecting enzyme activity. In the presence of an inhibitor, the ratio between product and substrate is altered: the signal of the product decreases, while the signal of the substrate increases.
# Activity in each sample is determined as the product to sum ratio (PSR): P/(S+P), where P is the peak height of the product peptide and S is the peak height of the substrate peptide. For each compound, enzyme activity is measured at various concentrations (12 concentrations of compound spaced by 3× dilution intervals). Negative control samples (0%-inhibition in the absence of inhibitor) and positive control samples (100%-inhibition, in the presence of 20 mM EDTA) are assembled in replicates of four and are used to calculate %-inhibition values for each inhibitor at each concentration. Percent inhibition (Pinh) is determined using following equation: Pinh=(PSR0%−PSRinh)/(PSR0%−PSR100%)*100, where PSRinh is the product sum ratio in the presence of inhibitor, PSR0% is the average product sum ration in the absence of inhibitor and PSR100% is the average product sum ratio in 100%-inhibition control samples;
# The IC50 values of inhibitors are determined by 4 parameter sigmoidal dose-response model fitting of the inhibition curves (Pinh versus inhibitor concentration) using XLfit 4 software.
# Human Btk kinase (Genbank accession # NP_000052) was purified from insect cells as a full-length construct containing a N-terminal 6×-His tag. Btk kinase activity was determined using a radiometric filter binding assay. Measurements are performed in a low reaction volume 384-well assay plates. […]
# T1 sequence (Q06187 whole entry): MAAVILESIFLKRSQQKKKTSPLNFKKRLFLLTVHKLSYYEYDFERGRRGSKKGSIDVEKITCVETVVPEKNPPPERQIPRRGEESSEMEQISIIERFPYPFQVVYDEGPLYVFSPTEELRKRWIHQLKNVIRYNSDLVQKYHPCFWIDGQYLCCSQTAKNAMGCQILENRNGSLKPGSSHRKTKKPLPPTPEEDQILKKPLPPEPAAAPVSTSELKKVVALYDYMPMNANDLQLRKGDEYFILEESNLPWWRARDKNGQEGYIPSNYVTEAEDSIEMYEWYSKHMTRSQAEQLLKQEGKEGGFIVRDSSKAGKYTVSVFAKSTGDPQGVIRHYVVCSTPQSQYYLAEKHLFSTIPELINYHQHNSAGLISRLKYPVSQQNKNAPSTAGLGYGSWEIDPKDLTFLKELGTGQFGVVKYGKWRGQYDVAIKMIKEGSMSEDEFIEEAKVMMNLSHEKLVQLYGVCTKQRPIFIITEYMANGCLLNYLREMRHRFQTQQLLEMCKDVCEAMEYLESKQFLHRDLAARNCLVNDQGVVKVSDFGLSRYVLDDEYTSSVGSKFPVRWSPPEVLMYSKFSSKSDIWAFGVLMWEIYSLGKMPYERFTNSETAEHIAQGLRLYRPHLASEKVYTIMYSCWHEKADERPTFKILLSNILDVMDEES
row,IC50,SMILES
1,< 100 nM,"C=CC(=O)Nc1ccc(-n2nc(-c3ccc(Cl)c(Cl)c3)c3c(N)ncnc32)cc1 [Example 20, N-(4-(4-amino-3-(3,4-dichlorophenyl)-1H-pyrazolo[3,4-d]pyrimidin-1-yl)phenyl)acrylamide]"
2,< 100 nM,COc1cc(-c2nn(-c3cccc(N(C)C(=O)/C=C/CN(C)C)n3)c3ncnc(N)c23)ccc1C [Example 30]
3,< 100 nM,CN(C)C/C=C/C(=O)N(C)c1cccc(-n2nc(-c3ccc(Cl)cc3)c3c(N)ncnc32)n1 [Example 31]
4,< 100 nM,CN(C(=O)/C=C/CN(C)C1CC1)c1ccc(-n2nc(-c3ccc(Cl)cc3)c3c(N)ncnc32)cc1 [Example 32]
5,< 100 nM,CCN(C/C=C/C(=O)N(C)c1ccc(-n2nc(-c3ccc(Cl)cc3)c3c(N)ncnc32)cc1)C1CC1 [Example 33]
6,< 100 nM,CN(C(=O)/C=C/CN(C)C1CCC1)c1ccc(-n2nc(-c3ccc(Cl)cc3)c3c(N)ncnc32)cc1 [Example 34]
7,< 100 nM,COc1cc(-c2nn(-c3cccc(NC(=O)/C=C/CN(C)C)c3)c3ncnc(N)c23)ccc1C [Example 35]
8,< 100 nM,C=CC(=O)N1CC[C@@H](n2nc(-c3ccc(Cl)cc3)c3c(N)ncnc32)C1 [Example 36]
9,< 100 nM,C=CC(=O)N(C)c1cccc(-n2nc(-c3ccc(C)c(OC)c3)c3c(N)ncnc32)c1 [Example 37]
10,< 100 nM,COc1cc(-c2nn(-c3cccc(N(C)C(=O)/C=C/CN(C)C)c3)c3ncnc(N)c23)ccc1C [Example 38]
11,< 100 nM,COc1cc(-c2nn(-c3ccc(N(C)C(=O)/C=C/CN(C)C4CCC4)cc3)c3ncnc(N)c23)ccc1C [Example 40]
12,< 100 nM,COCCOc1ccc(-n2nc(-c3ccc(C)c(OC)c3)c3c(N)ncnc32)cc1NC(=O)/C=C/CN(C)C [Example 41]
13,< 100 nM,COc1cc(-c2nn(-c3cccc(N(C)C(=O)/C=C/CN4CCOCC4)c3)c3ncnc(N)c23)ccc1C [Example 44]
14,< 100 nM,COc1cc(-c2nn([C@@H]3CCCN(C(=O)/C=C/CN(C)C)C3)c3ncnc(N)c23)ccc1C [Example 45]
15,< 100 nM,CN(C)C/C=C/C(=O)N1CCC[C@@H](n2nc(-c3ccc(Cl)cc3)c3c(N)ncnc32)C1 [Example 46]
16,< 100 nM,CN(C)C/C=C/C(=O)N1CCC(n2nc(-c3ccc(Cl)cc3)c3c(N)ncnc32)CC1 [Example 47]
17,< 100 nM,COc1cc(-c2nn(CC3CCN(C(=O)/C=C/CN(C)C)CC3)c3ncnc(N)c23)ccc1C [Example 48]
18,< 100 nM,COc1cc(-c2nn(C[C@@H]3CCCN3C(=O)/C=C/CN(C)C)c3ncnc(N)c23)ccc1C [Example 49]
19,< 100 nM,COc1cc(-c2nn(C[C@H]3CCCN3C(=O)/C=C/CN(C)C)c3ncnc(N)c23)ccc1C [Example 50]
20,< 100 nM,CN(C)C/C=C/C(=O)N(C)c1cc(-n2nc(-c3ccc(Cl)cc3)c3c(N)ncnc32)ccc1F [Example 51]
21,< 100 nM,COc1cc(-c2nn(-c3ccc(N(C)C(=O)/C=C/CN(C)C)c(Cl)c3)c3ncnc(N)c23)ccc1C [Example 52]
22,< 100 nM,COc1cc(-c2nn(C3CCN(C(=O)/C=C/CN(C)C)CC3)c3ncnc(N)c23)ccc1C [Example 53]
23,< 100 nM,COc1cc(-c2nn([C@@H]3CCN(C(=O)/C=C/CN(C)C)C3)c3ncnc(N)c23)c(F)cc1C [Example 54]
24,< 100 nM,COc1cc(-c2nn(-c3cccc(N(C)C(=O)/C=C/CN(C)C)c3)c3ncnc(N)c23)c(F)cc1C [Example 55]
25,< 100 nM,COc1cc(-c2nn(C3CCN(C(=O)/C=C/CN(C)C4CC4)CC3)c3ncnc(N)c23)ccc1C [Example 57]
26,< 100 nM,COc1cc(-c2nn([C@H]3CC[C@@H](NC(=O)/C=C/CN(C)C4CC4)CC3)c3ncnc(N)c23)ccc1C [Example 59]

row,IC50,SMILES
1,< 100 nM,COc1cc(-c2nn([C@@H]3CCN(C(=O)/C=C/CN(C)C4CC4)C3)c3ncnc(N)c23)ccc1C [Example 60]
2,< 100 nM,CN(C/C=C/C(=O)N1CC[C@@H](n2nc(-c3ccc(Cl)cc3)c3c(N)ncnc32)C1)C1CC1 [Example 61]
3,< 100 nM,COc1cc(-c2nn(-c3ccc(N(C)C(=O)/C=C/CN(C)C)c(F)c3)c3ncnc(N)c23)ccc1C [Example 62]
4,< 100 nM,COc1cc(-c2nn(-c3ccc(F)c(N(C)C(=O)/C=C/CN(C)C)c3)c3ncnc(N)c23)ccc1C [Example 63]
5,< 100 nM,COc1cc(-c2nn(C3CN(C(=O)/C=C/CN(C)C)C3)c3ncnc(N)c23)ccc1C [Example 64]
6,< 100 nM,CN(C)C/C=C/C(=O)N1CC(n2nc(-c3ccc(Cl)cc3)c3c(N)ncnc32)C1 [Example 65]
7,< 100 nM,CN(C/C=C/C(=O)N1CC(n2nc(-c3ccc(Cl)cc3)c3c(N)ncnc32)C1)C1CC1 [Example 66]
8,< 100 nM,COc1cc(-c2nn(C3CN(C(=O)/C=C/CN(C)C4CC4)C3)c3ncnc(N)c23)ccc1C [Example 67]
9,< 100 nM,COc1cc(-c2nn(-c3ccc(N(C)C(=O)/C=C/CN(C)C4CC4)c(F)c3)c3ncnc(N)c23)ccc1C [Example 68]
10,< 100 nM,CN(C(=O)/C=C/CN(C)C1CC1)c1cc(-n2nc(-c3ccc(Cl)cc3)c3c(N)ncnc32)ccc1F [Example 69]
11,< 100 nM,COCCOc1ccc(-n2nc(-c3ccc(C)c(OC)c3)c3c(N)ncnc32)cc1N(C)C(=O)/C=C/CN(C)C [Example 70]
12,< 100 nM,COc1cc(-c2nn(C[C@H]3CCN(C(=O)/C=C/CN(C)C)C3)c3ncnc(N)c23)ccc1C [Example 72]
13,< 100 nM,COc1cc(-c2nn([C@H]3CC[C@@H](N(C)C(=O)/C=C/CN(C)C)CC3)c3ncnc(N)c23)ccc1C [Example 73]
14,< 100 nM,COc1cc(-c2nn(-c3ccc(F)c(N(C)C(=O)/C=C/CN(C)C4CC4)c3)c3ncnc(N)c23)ccc1C [Example 76]
15,< 100 nM,COc1cc(-c2nn(-c3ccc(OCC(C)(C)O)c(N(C)C(=O)/C=C/CN(C)C)c3)c3ncnc(N)c23)ccc1C [Example 77]
16,< 100 nM,C=CC(=O)N1CCC(n2nc(-c3ccc(C)c(OC)c3)c3c(N)ncnc32)CC1 [Example 78]
17,< 100 nM,C=CC(=O)N1CC(n2nc(-c3ccc(C)c(OC)c3)c3c(N)ncnc32)C1 [Example 79]
18,< 100 nM,C=CC(=O)N1CCC(n2nc(-c3ccc(Cl)cc3)c3c(N)ncnc32)CC1 [Example 80]
19,< 100 nM,C=CC(=O)N1CC(n2nc(-c3ccc(Cl)cc3)c3c(N)ncnc32)C1 [Example 81]
20,< 100 nM,COc1cc(-c2nn(-c3ccc(N(C)S(=O)(=O)/C=C/CN(C)C)cc3)c3ncnc(N)c23)ccc1C [Example 82]
21,< 100 nM,C=CC(=O)N1CC[C@@H](n2nc(-c3ccc(C)c(OC)c3)c3c(N)ncnc32)C1 [Example 83]
22,< 100 nM,C=CC(=O)N1CCC[C@@H](n2nc(-c3ccc(C)c(OC)c3)c3c(N)ncnc32)C1 [Example 84]
23,< 100 nM,C=CC(=O)N1CCC[C@@H](n2nc(-c3ccc(Cl)cc3)c3c(N)ncnc32)C1 [Example 85]
24,< 100 nM,C=CC(=O)N1CC[C@@H](n2nc(-c3ccc(F)c(OC)c3)c3c(N)ncnc32)C1 [Example 85b]
25,< 100 nM,C=CC(=O)N1CC[C@@H](n2nc(-c3ccc(F)cc3)c3c(N)ncnc32)C1 [Example 85c]
26,< 100 nM,C=CC(=O)N1CC[C@@H](n2nc(-c3ccc(C)cc3)c3c(N)ncnc32)C1 [Example 85d]

# Target: Lyn (Homo sapiens, UniProt P07948)
# Test: Lyn kinase inhibition
# Type: biochemical
# Conditions: not given
# Lyn, sequence (P07948 whole entry): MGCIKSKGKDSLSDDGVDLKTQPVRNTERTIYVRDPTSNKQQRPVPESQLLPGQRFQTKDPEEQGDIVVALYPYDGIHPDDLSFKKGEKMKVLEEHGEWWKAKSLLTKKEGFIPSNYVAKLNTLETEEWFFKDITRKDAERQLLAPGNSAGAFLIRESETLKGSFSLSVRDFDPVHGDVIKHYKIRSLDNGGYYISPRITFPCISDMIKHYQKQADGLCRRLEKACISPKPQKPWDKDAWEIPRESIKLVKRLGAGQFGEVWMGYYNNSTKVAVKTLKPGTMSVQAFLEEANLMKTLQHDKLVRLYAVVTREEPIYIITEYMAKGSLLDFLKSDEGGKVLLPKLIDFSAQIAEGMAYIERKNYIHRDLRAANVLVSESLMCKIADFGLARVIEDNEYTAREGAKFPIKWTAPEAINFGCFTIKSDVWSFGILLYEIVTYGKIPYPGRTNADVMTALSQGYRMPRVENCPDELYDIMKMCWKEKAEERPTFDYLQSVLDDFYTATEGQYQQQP
row,IC50,SMILES
1,100 to 1000 nM,"C=CC(=O)Nc1ccc(-n2nc(-c3ccc(Cl)c(Cl)c3)c3c(N)ncnc32)cc1 [Example 20, N-(4-(4-amino-3-(3,4-dichlorophenyl)-1H-pyrazolo[3,4-d]pyrimidin-1-yl)phenyl)acrylamide]"

# Target: C-src (Homo sapiens, UniProt P12931)
# Test: C-src kinase inhibition
# Type: biochemical
# Conditions: not given
# Description: as §1
# C-src, sequence (P12931 whole entry): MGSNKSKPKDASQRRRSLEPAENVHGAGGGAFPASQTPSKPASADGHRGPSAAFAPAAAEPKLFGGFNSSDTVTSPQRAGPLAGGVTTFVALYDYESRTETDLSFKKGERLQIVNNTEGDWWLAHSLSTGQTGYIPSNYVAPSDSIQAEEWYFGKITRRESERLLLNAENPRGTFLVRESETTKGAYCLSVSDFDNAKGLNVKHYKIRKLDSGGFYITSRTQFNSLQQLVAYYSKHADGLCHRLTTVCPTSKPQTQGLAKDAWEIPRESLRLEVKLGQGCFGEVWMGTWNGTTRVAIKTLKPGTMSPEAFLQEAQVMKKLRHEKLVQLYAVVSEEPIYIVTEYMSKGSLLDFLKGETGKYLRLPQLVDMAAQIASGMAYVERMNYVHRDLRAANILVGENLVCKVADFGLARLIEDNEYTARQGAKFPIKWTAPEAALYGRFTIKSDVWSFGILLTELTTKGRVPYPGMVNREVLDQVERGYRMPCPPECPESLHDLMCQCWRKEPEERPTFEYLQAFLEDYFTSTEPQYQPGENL
row,IC50,SMILES
1,< 100 nM,"C=CC(=O)Nc1ccc(-n2nc(-c3ccc(Cl)c(Cl)c3)c3c(N)ncnc32)cc1 [Example 20, N-(4-(4-amino-3-(3,4-dichlorophenyl)-1H-pyrazolo[3,4-d]pyrimidin-1-yl)phenyl)acrylamide]"
